The text below walks through data of ChEMBL document CHEMBL3992494, “Amaryllidaceae alkaloids with new framework types from Zephyranthes candida as potent acetylcholinesterase inhibitors” (Eur J Med Chem, 2017).

SMILES strings stand for the structures. Active and inactive are the calls of the source. The rule behind the calls is not given here.

Assay [1] deals with Acetylcholinesterase (Electrophorus electricus) (UniProt O42275). Briefly: Inhibition of electric eel AChE at 200 uM using acetylthiocholine iodide as substrate measured every minute for fifteen minutes by Ellman's method. For orientation: Ellman's reagent forms a yellow product with free thiols.
In a further assay the target is Acetylcholinesterase (Electrophorus electricus, UniProt O42275). Briefly: Inhibition of electric eel AChE using acetylthiocholine iodide as substrate measured every minute for fifteen minutes by Ellman's method.
Acetylcholinesterase, sequence (O42275 whole entry): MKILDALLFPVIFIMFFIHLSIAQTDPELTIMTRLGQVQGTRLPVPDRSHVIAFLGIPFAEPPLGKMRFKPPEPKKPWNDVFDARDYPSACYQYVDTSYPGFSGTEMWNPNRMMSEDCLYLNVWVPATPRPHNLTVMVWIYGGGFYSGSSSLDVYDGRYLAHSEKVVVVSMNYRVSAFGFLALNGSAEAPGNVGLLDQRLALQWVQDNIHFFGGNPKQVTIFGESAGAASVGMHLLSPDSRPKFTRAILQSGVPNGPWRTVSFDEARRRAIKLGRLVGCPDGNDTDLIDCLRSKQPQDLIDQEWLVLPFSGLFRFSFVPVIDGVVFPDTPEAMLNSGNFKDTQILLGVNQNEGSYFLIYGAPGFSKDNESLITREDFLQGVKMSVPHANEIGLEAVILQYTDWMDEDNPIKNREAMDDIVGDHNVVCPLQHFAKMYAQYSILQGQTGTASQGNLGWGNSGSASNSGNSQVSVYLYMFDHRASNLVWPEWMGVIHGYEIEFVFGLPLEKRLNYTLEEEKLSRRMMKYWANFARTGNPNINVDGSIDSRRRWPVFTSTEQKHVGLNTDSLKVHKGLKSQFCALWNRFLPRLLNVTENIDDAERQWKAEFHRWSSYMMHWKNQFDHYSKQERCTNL

Acetylcholinesterase (Electrophorus electricus), sequence (O42275 24-633 limits assumed): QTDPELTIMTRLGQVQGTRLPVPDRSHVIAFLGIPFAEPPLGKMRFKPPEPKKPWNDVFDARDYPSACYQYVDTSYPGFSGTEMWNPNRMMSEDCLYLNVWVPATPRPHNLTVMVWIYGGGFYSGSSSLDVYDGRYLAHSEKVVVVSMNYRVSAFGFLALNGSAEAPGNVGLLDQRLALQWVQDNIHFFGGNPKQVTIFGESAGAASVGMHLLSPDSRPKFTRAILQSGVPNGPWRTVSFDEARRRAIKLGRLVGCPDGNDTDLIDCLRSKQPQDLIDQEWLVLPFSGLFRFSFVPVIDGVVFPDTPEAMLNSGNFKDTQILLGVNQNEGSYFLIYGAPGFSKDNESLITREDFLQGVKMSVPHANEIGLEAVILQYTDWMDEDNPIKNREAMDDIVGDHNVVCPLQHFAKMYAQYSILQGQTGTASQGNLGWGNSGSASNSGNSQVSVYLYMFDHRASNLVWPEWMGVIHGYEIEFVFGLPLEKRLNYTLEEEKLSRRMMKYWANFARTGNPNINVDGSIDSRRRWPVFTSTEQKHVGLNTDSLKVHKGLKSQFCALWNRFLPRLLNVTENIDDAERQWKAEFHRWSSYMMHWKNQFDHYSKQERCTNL

As to `CO[C@H]1C=C[C@@]2(c3ccc(O)cc3)CCN[C@H]2C1`, in assay [1], the inhibition result was “inactive”.

Regarding `COc1cc([C@@H]2[C@H](O)CC=C3CCN(C)[C@H]32)cc(OC)c1OC`, the inhibition entry in assay [1] is “inactive”.

The IC50 is the midpoint of a concentration-inhibition curve. `CNc1ccc(COC)cc1-c1cc2c(cc1CO)OCO2` showed an IC50 against Acetylcholinesterase of 8.82 µM.
